# BindingDB's records for doi:10.1021/jm0104567 (Takeda Chemical Industries, 2002)
# Where a name gives a salt, the structure may show the parent alone.
# Assay: In vitro inhibition of acid induced swelling in rat platelets by 50% as a measure of NHE-1 inhibition
row,SMILES,IC50 [nM]
1,"Cc1cc(C)c2c(n1)CC(c1ccccc1)CC2=NN=C(N)N (stereo not drawn) [N-(2,4-dimethyl-7-phenyl-5,6,7,8-tetrahydro-5-quinolinyliden(imine))iminomethanediamine. dihydrochloride]",180
2,"Cc1ccc2c(n1)CC(c1ccccc1)CC2=NN=C(N)N (stereo not drawn) [N-(2-methyl-7-phenyl-5,6,7,8-tetrahydro-5-quinolinyliden(imine))iminomethanediamine. dihydrochloride]",2800
3,"NC(N)=NN=C1CC(c2ccccc2)Oc2ccccc21 (stereo not drawn) [N-(2-phenyl-3,4-dihydro-2H-4-chromenyliden(imine))iminomethanediamine. hydrochloride]",3300
4,NC(N)=NN=c1cc(-c2ccccc2)oc2ccccc12 [N-(2-phenyl-4H-4-chromenyliden(imine))iminomethanediamine. hydrochloride],6400
5,"Cc1ccnc2c1C(=NN=C(N)N)CC(c1ccccc1)C2 (stereo not drawn) [N-(4-methyl-7-phenyl-5,6,7,8-tetrahydro-5-quinolinyliden(imine))iminomethanediamine. dihydrochloride]",91
6,"NC(N)=NN=C1CC(c2ccccc2)Cc2[nH]ccc21 (stereo not drawn) [N-(6-phenyl-4,5,6,7-tetrahydro-1H-4-indolyliden(imine))iminomethanediamine. dihydrochloride]",3500
7,"NC(N)=NN=C1CC(c2ccccc2)Cc2ncccc21 (stereo not drawn) [N-(7-phenyl-5,6,7,8-tetrahydro-5-quinolinyliden(imine))iminomethanediamine. dihydrochloride]",410
8,COc1cccc(C=NNC(=N)N)c1OCc1ccccc1 [N-[2-(2-benzyloxy-3-methoxyphenyl)-(E)-1-meth(imine)]iminomethanediamine],2300
9,"Cc1cccc2c1C(=NN=C(N)N)CC(c1ccccc1Cl)O2 (stereo not drawn) [N-[2-(2-chlorophenyl)-5-methyl-3,4-dihydro-2H-4-chromenyliden(imine)]iminomethanediamine. hydrochloride]",200
10,Cc1cccc2oc(-c3ccccc3Cl)cc(=NN=C(N)N)c12 [N-[2-(2-chlorophenyl)-5-methyl-4H-4-chromenylidenmethyl]iminomethanediamine. dihydrochloride],360
11,"Cc1ccnc2c1C(=NN=C(N)N)CC(c1cccc(Cl)c1Cl)C2 (stereo not drawn) [N-[7-(2,3-dichlorophenyl)-4-methyl-5,6,7,8-tetrahydro-5-quinolinyliden(imine)]iminomethanediamine. dihydrochloride]",89
12,"Cc1ccnc2c1C(=NN=C(N)N)CC(c1ccc(Cl)cc1Cl)C2 (stereo not drawn) [N-[7-(2,4-dichlorophenyl)-4-methyl-5,6,7,8-tetrahydro-5-quinolinyliden(imine)]iminomethanediamine. dihydrochloride]",340
13,"Cc1ncnc2c1C(=NN=C(N)N)CC(c1ccccc1Cl)C2 (stereo not drawn) [N-[7-(2-chlorophenyl)-4-methyl-5,6,7,8-tetrahydro-5-quinazolinyliden(imine)]iminomethanediamine. dihydrochloride]",240
14,"Cc1ccnc2c1C(=NN=C(N)N)C[C@@H](c1ccccc1Cl)C2 [N-[7-(2-chlorophenyl)-4-methyl-(7S)-5,6,7,8-tetrahydro-5-quinolinyliden(imine)]iminomethanediamine 2CH3SO3H]",700
15,"Cc1ccnc2c1C(=NN=C(N)N)CC(c1ccco1)C2 (stereo not drawn) [N-[7-(2-furyl)-4-methyl-5,6,7,8-tetrahydro-5-quinolinyliden(imine)]iminomethanediamine. dihydrochloride]",110
16,"COc1ccccc1C1CC(=NN=C(N)N)c2c(C)ccnc2C1 (stereo not drawn) [N-[7-(2-methoxyphenyl)-4-methyl-5,6,7,8-tetrahydro-5-quinolinyliden(imine)]iminomethanediamine. dihydrochloride]",100
17,"Cc1ccnc2c1C(=NN=C(N)N)CC(c1ccc(Cl)cc1)C2 (stereo not drawn) [N-[7-(4-chlorophenyl)-4-methyl-5,6,7,8-tetrahydro-5-quinolinyliden(imine)]iminomethanediamine. dihydrochloride]",550

# Compounds with a lower IC50, results first:
row,IC50 [nM],SMILES
1,75,CC(C)c1ccc(C(=O)NC(=N)N)cc1S(C)(=O)=O
2,33,"Cc1ccnc2c1C(=NN=C(N)N)C[C@@H](c1cc(Cl)sc1Cl)C2 [(R)-N-[7-(2,5-dichloro-3-thienyl)-4-methyl-(7R)-5,6,7,8-tetrahydro-5-quinolinyliden(imine)]iminomethanediamine 2CH3SO3H]"
3,17,"Cc1ccnc2c1C(=NN=C(N)N)C[C@H](c1cc(Cl)sc1Cl)C2 [(S)-N-[7-(2,5-dichloro-3-thienyl)-4-methyl-(7S)-5,6,7,8-tetrahydro-5-quinolinyliden(imine)]iminomethanediamine 2CH3SO3H]"
4,14,"Cc1ccc(F)cc1[C@H]1CC(=NN=C(N)N)c2c(C)ccnc2C1 [(S)-N-[7-(5-fluoro-2-methylphenyl)-4-methyl-(7S)-5,6,7,8-tetrahydro-5-quinolinyliden(imine)]iminomethanediamine 2CH3SO3H]"
5,34,"Cc1ccccc1C1CC(=NN=C(N)N)c2c(C)c[nH]c2C1 (stereo not drawn) [N-[3-methyl-6-(2-methylphenyl)-4,5,6,7-tetrahydro-1H-4-indolyliden(imine)]iminomethanediamine. dihydrochloride]"
6,57,"Cc1ccccc1C1CC(=NN=C(N)N)c2c(C)ccnc2C1 (stereo not drawn) [N-[4-methyl-7-(2-methylphenyl)-5,6,7,8-tetrahydro-5-quinolinyliden(imine)]iminomethanediamine. dihydrochloride]"
7,47,"Cc1ccnc2c1C(=NN=C(N)N)CC(c1cccs1)C2 (stereo not drawn) [N-[4-methyl-7-(2-thienyl)-5,6,7,8-tetrahydro-5-quinolinyliden(imine)]iminomethanediamine. dihydrochloride]"
8,30,"Cc1ccnc2c1C(=NN=C(N)N)CC(c1ccsc1)C2 (stereo not drawn) [N-[4-methyl-7-(3-thienyl)-5,6,7,8-tetrahydro-5-quinolinyliden(imine)]iminomethanediamine. dihydrochloride]"
9,55,"Cc1n[nH]c2c1C(=NN=C(N)N)CC(c1ccccc1Cl)C2 (stereo not drawn) [N-[6-(2-chlorophenyl)-3-methyl-4,5,6,7-tetrahydro-1H-4-indazolyliden(imine)]iminomethanediamine. dihydrochloride]"
10,82,"Cc1coc2c1C(=NN=C(N)N)CC(c1ccccc1Cl)C2 (stereo not drawn) [N-[6-(2-chlorophenyl)-3-methyl-4,5,6,7-tetrahydrobenzo[b]furan-4-yliden(imine)]iminomethanediamine. hydrochloride]"
11,58,"Cc1ccnc2c1C(=NN=C(N)N)CC(c1cc(Cl)ccc1Cl)C2 (stereo not drawn) [N-[7-(2,5-dichlorophenyl)-4-methyl-5,6,7,8-tetrahydro-5-quinolinyliden(imine)]iminomethanediamine. dihydrochloride]"
12,39,"Cc1ccnc2c1C(=NN=C(N)N)CC(c1cc(F)ccc1F)C2 (stereo not drawn) [N-[7-(2,5-difluorophenyl)-4-methyl-5,6,7,8-tetrahydro-5-quinolinyliden(imine)]iminomethanediamine. dihydrochloride]"
13,56,"Cc1ccnc2c1C(=NN=C(N)N)CC(c1ccccc1Br)C2 (stereo not drawn) [N-[7-(2-bromophenyl)-4-methyl-5,6,7,8-tetrahydro-5-quinolinyliden(imine)]iminomethanediamine. dihydrochloride]"
14,22,"Cc1ccnc2c1C(=NN=C(N)N)CC(c1ccsc1Cl)C2 (stereo not drawn) [N-[7-(2-chloro-3-thienyl)-4-methyl-5,6,7,8-tetrahydro-5-quinolinyliden(imine)]iminomethanediamine. dihydrochloride]"
15,50,"COc1ccnc2c1C(=NN=C(N)N)CC(c1ccccc1Cl)C2 (stereo not drawn) [N-[7-(2-chlorophenyl)-4-methoxy-5,6,7,8-tetrahydro-5-quinolinyliden(imine)]iminomethanediamine. 2CH3SO3H]"
16,26,"Cc1cnnc2c1C(=NN=C(N)N)CC(c1ccccc1Cl)C2 (stereo not drawn) [N-[7-(2-chlorophenyl)-4-methyl-5,6,7,8-tetrahydro-5-cinnolinyliden(imine)]iminomethanediamine. dihydrochloride]"
17,40,"Cc1ccnc2c1C(=NN=C(N)N)CC(c1ccccc1Cl)C2 (stereo not drawn) [N-[7-(2-chlorophenyl)-4-methyl-5,6,7,8-tetrahydro-5-quinolinyliden(imine)]iminomethanediamine. dihydrochloride]"
18,20,"Cc1ccnc2c1C(=NN=C(N)N)C[C@H](c1ccccc1Cl)C2 [N-[7-(2-chlorophenyl)-4-methyl-(7S)-5,6,7,8-tetrahydro-5-quinolinyliden(imine)]iminomethanediamine 2CH3SO3H]"
19,49,"Cc1ccnc2c1C(=NN=C(N)N)CC(c1sc(Cl)cc1Cl)C2 (stereo not drawn) [N-[7-(3,5-dichloro-2-thienyl)-4-methyl-5,6,7,8-tetrahydro-5-quinolinyliden(imine)]iminomethanediamine. dihydrochloride]"
20,61,"Cc1ccnc2c1C(=NN=C(N)N)CC(c1cccc(Cl)c1)C2 (stereo not drawn) [N-[7-(3-chlorophenyl)-4-methyl-5,6,7,8-tetrahydro-5-quinolinyliden(imine)]iminomethanediamine. dihydrochloride]"
21,37,"Cc1ccc(F)cc1C1CC(=NN=C(N)N)c2c(C)ccnc2C1 (stereo not drawn) [N-[7-(5-fluoro-2-methylphenyl)-4-methyl-5,6,7,8-tetrahydro-5-quinolinyliden(imine)]iminomethanediamine. dihydrochloride]"
